Values joined by “and” are separate entries in the source; they are usually repeats but may differ in a detail not shown here. Equal entries are not always repeated. Where two headings read alike, the source gives them in different places.
Key:
Type in all cases: cell-based
[1] = test system: Trypanosoma brucei rhodesiense (Tbr) STIB900 strain; assay: in vitro antitrypanosomal assay, bloodstream forms, resazurin; details: for SI(Tbr): Selectivity index IC50(Cytotox)/IC50(Tbr); for IC50: read-out: IC50 Tbr (converted)
Protocol: Trypanosoma brucei rhodesiense (Tbr): The STIB900 strain is a derivative of the STIB704 strain isolated from a patient in Ifakara, Tanzania, in 1982 [43]. The bloodstream forms were cultivated as axenic culture in HMI-9 medium, supplemented with 15% heat-inactivated horse serum. Cultures were maintained at 37 °C in an atmosphere of 5% CO2. Test compounds were dissolved in DMSO (10 mg/mL), and serial drug dilutions of eleven 3-fold dilution steps covering a range from 100 to 0.002 μg/mL were prepared in a 96-well plate. Bloodstream-form of T. b rhodesiense strain STIB900 (2 × 10^3/well) was added into the wells. After 68 h incubation, 10 μL of resazurin solution (12.5 mg resazurin in 100 mL 1xPBS) was added per well, and plates were incubated for an additional 4 h. Subsequently, the plates were read with a Spectramax Gemini EM microplate fluorometer (Molecular Devices, San Jose, CA, USA) using an excitation wavelength of 536 nm and an emission wavelength of 588 nm. Data were treated according to [44] (see below). Melarsoprol was used as a positive control.
(§1) Bioassay data and statistical methods: In all cases, the readout data were plotted in Microsoft Excel. Half-maximal inhibitory concentrations (IC50 values) were calculated from the sigmoidal dose-response curves by linear regression. Two independent replicates of the assay were performed in all cases, and the results were expressed as arithmetic mean ± deviation from the mean.

[2] = cytotoxicity against L-6 rat skeletal myoblasts, resazurin
Protocol: Cytotoxicity against L-6 rat skeletal myoblasts: The L6 rat skeletal myoblast cell line used for cytotoxicity tests was obtained from the American Type Culture Collection (ATCC, Manassas, VA, USA) as ATCC-CRL-1458 [50]. The cells were cultivated in RPMI 1640 medium supplemented with 1% L-glutamine (200mM) and 10% fetal bovine serum. Cultures were maintained at 37 °C in an atmosphere of 5% CO2. Assays were performed in 96-well plates, each well containing RPMI 1640 medium supplemented with 1% L-glutamine (200 mM), 10% fetal bovine serum, and 2 × 10^3 L-6 cells/well. Plates were incubated at 37 °C under a 5% CO2 atmosphere for 24 h. Compounds were dissolved in DMSO (10 mg/mL). After 24 h, serial drug dilutions of eleven 3-fold dilution steps covering a range from 100 to 0.002 μg/mL were prepared, and the plates were incubated at 37 °C under 5% CO2 for 70 h. After 70 h incubation, 10 μL of resazurin solution (12.5 mg resazurin in 100 mL 1xPBS) was added per well, and plates were incubated for an additional 2 h. After that, the plates were read with a Spectramax Gemini EM microplate fluorometer (Molecular Devices, San Jose, CA, USA) using an excitation wavelength of 536 nm and an emission wavelength of 588 nm. Data were treated according to [44] (see below). Podophyllotoxin served as a positive control.
as §1

[3] = test system: Plasmodium falciparum (Pf) NF54 strain; assay: in vitro antiplasmodial assay, 3H-hypoxanthine incorporation, erythrocytic stages; details: for IC50: read-out: IC50 Pf (converted); for SI (Pf): Selectivity index IC50(Cytotox)/IC50(Pf), pure compounds
Protocol: Plasmodium falciparum (Pf): Tests were performed against erythrocytic stages of the drug-sensitive NF54 strain. The NF54 strain was obtained from F. Hoffmann-La Roche Limited (Basel, Switzerland). The strain NF54 was originally derived from a patient living near Schiphol Airport, Amsterdam, who had never left the Netherlands. The assay was performed using a 3H-hypoxanthine incorporation assay. Serial compound dilutions were prepared with the medium as indicated above and then added in 96-well plates to parasite cultures incubated in the medium previously described, consisting of RPMI 1640 supplemented with 0.5% ALBUMAX® II, 25 mM Hepes, 25 mM NaHCO3 (pH 7.3), 0.36 mM hypoxanthine, and 100 μg/mL neomycin. The plates were incubated in a humidified atmosphere at 37 °C, 4% CO2, 3% O2, and 93% N2. After 48 h, 0.25 μCi of 3H-hypoxanthine was added to each well. Incubation was continued under identical conditions for a further 24 h. The plates were then harvested using a Betaplate™ cell harvester (Wallac, Zurich, Switzerland). The red blood cells were transferred onto a glass fiber filter and washed with distilled H2O. After drying, filters were inserted into a plastic foil with 10 mL of scintillation fluid and counted with a Betaplate™ liquid scintillation counter (Wallac, Zurich, Switzerland). Data were treated according to [44] (see below). The positive control was chloroquine.
as §1

[4] = Trypanosoma brucei, pure compounds, tested as mono- or bis-trifluoroacetates where marked
[5] = Trypanosoma brucei, values in brackets, calculated with the molecular masses of the corresponding salts
[6] = Plasmodium falciparum, NF54, pure compounds, tested as mono- or bis-trifluoroacetates where marked
[7] = Plasmodium falciparum, NF54, values in brackets, calculated with the molecular masses of the corresponding salts
[8] = values in brackets, calculated with the molecular masses of the corresponding salts

Row | Compound | SI(Tbr) ([1]; pure compounds) | IC50 [1, 4] [µg/mL] | IC50 [1, 5] [nM] | IC50 at 70 h [2] | IC50 [3, 6] [µg/mL] | IC50 [3, 7] [nM] | SI (Pf) [3] | IC50 [1, 8] [nM] | IC50 [3, 8] [nM]
1 | CN[C@@H]1CC[C@]2(C)[C@H]3CC[C@]4(C)[C@@H]([C@H](C)N(C)C)CC[C@H]4[C@@H]3CC[C@@]2(O)[C@@H]1OC(=O)c1ccccc1 [Compound 17, 5α-Hydroxy-3α,4α-diapachysanaximine A] | 3 | 3 ± 2 | 5000 | 12 µg/mL and 16 µM | 1.6 ± 0.4 | 2300 | 7 | – | –
2 | CNC1CCC2(C)C3CCC4(C)C(CCC4C(C)N(C)C)C3CCC2C1OC(=O)c1ccccc1 (stereo not drawn) [Compound 7] | 133 | 0.079 ± 0.001 | 110 | 10 µg/mL and 15 µM | 0.45 ± 0.09 | 630 | 23 | 112 | –
3 | CN[C@@H]1CC[C@]2(C)[C@H]3CC[C@]4(C)[C@@H]([C@H](C)N(C)C)CC[C@H]4[C@@H]3CC[C@H]2[C@@H]1OC(=O)C=C(C)C [Compound 10, Pachysandrine D] | 9 | 0.69 ± 0.03 | 950 | 6.5 µg/mL and 9.5 µM | 0.66 ± 0.13 | 1010 | 10 | 1010 | 970
